Laboratory results taken from the NIST ThermoML archive (doi:10.1021/je300873x).
Numbers after ± are expanded uncertainties.

Test: mn = molality of the nth substance listed, in mol/kg
Conditions: for surface tension liquid-gas: Pendant drop shape; for electrical conductivity: Liquid, Digital conductivity meter

Compound: CCCCCCCCCCCC[N+](C)(CCO)CCO.[Br-] [N,N-bis(2-hydroxyethyl)-N-methyldodecan-1-aminium bromide] + O
- surface tension liquid-gas (298.15 K, m1 = 0.00097): 68.8 ± 0.01 mN/m
- surface tension liquid-gas (298.15 K, m1 = 0.00193): 62.75 ± 0.01 mN/m
- surface tension liquid-gas (298.15 K, m1 = 0.00387): 54.86 ± 0.01 mN/m
- surface tension liquid-gas (298.15 K, m1 = 0.0058): 48.7 ± 0.01 mN/m
- surface tension liquid-gas (298.15 K, m1 = 0.00773): 45.46 ± 0.01 mN/m
- surface tension liquid-gas (298.15 K, m1 = 0.00967): 41.58 ± 0.01 mN/m
- surface tension liquid-gas (298.15 K, m1 = 0.0116): 39.54 ± 0.01 mN/m
- surface tension liquid-gas (298.15 K, m1 = 0.01257): 38.9 ± 0.01 mN/m
- surface tension liquid-gas (298.15 K, m1 = 0.0145): 38.74 ± 0.01 mN/m
- surface tension liquid-gas (298.15 K, m1 = 0.01644): 38.53 ± 0.01 mN/m
- surface tension liquid-gas (298.15 K, m1 = 0.01956): 38.53 ± 0.01 mN/m
- surface tension liquid-gas (298.15 K, m1 = 0.0291): 38.45 ± 0.01 mN/m
- surface tension liquid-gas (298.15 K, m1 = 0.04849): 38.36 ± 0.01 mN/m
- electrical conductivity (298.15 K, m1 = 0.0095): 0.0822 ± 0.0001 S/m
- electrical conductivity (298.15 K, m1 = 0.00997): 0.0859 ± 0.0001 S/m
- electrical conductivity (298.15 K, m1 = 0.0105): 0.0903 ± 0.0001 S/m
- electrical conductivity (298.15 K, m1 = 0.01108): 0.0948 ± 0.0001 S/m
- electrical conductivity (298.15 K, m1 = 0.01174): 0.0998 ± 0.0001 S/m
- electrical conductivity (298.15 K, m1 = 0.01247): 0.1051 ± 0.0001 S/m
- electrical conductivity (298.15 K, m1 = 0.01287): 0.1075 ± 0.0001 S/m
- electrical conductivity (298.15 K, m1 = 0.0133): 0.1097 ± 0.0001 S/m
- electrical conductivity (298.15 K, m1 = 0.01376): 0.1114 ± 0.0001 S/m
- electrical conductivity (298.15 K, m1 = 0.01425): 0.1126 ± 0.0001 S/m
- electrical conductivity (298.15 K, m1 = 0.01478): 0.1144 ± 0.0001 S/m
- electrical conductivity (298.15 K, m1 = 0.01535): 0.1155 ± 0.0001 S/m
- electrical conductivity (298.15 K, m1 = 0.01596): 0.1171 ± 0.0001 S/m
- electrical conductivity (298.15 K, m1 = 0.01663): 0.119 ± 0.0001 S/m
- electrical conductivity (298.15 K, m1 = 0.01735): 0.1209 ± 0.0001 S/m
- electrical conductivity (298.15 K, m1 = 0.01814): 0.1227 ± 0.0001 S/m
- electrical conductivity (298.15 K, m1 = 0.01901): 0.1245 ± 0.0001 S/m
- electrical conductivity (298.15 K, m1 = 0.01996): 0.1268 ± 0.0001 S/m
- electrical conductivity (303.15 K, m1 = 0.00949): 0.091 ± 0.0001 S/m
- electrical conductivity (303.15 K, m1 = 0.00996): 0.0952 ± 0.0001 S/m
- electrical conductivity (303.15 K, m1 = 0.01049): 0.0996 ± 0.0001 S/m
- electrical conductivity (303.15 K, m1 = 0.01107): 0.1049 ± 0.0001 S/m
- electrical conductivity (303.15 K, m1 = 0.01172): 0.1117 ± 0.0001 S/m
- electrical conductivity (303.15 K, m1 = 0.01245): 0.1161 ± 0.0001 S/m
- electrical conductivity (303.15 K, m1 = 0.01285): 0.1192 ± 0.0001 S/m
- electrical conductivity (303.15 K, m1 = 0.01328): 0.1216 ± 0.0001 S/m
- electrical conductivity (303.15 K, m1 = 0.01374): 0.1236 ± 0.0001 S/m
- electrical conductivity (303.15 K, m1 = 0.01423): 0.1258 ± 0.0001 S/m
- electrical conductivity (303.15 K, m1 = 0.01476): 0.127 ± 0.0001 S/m
- electrical conductivity (303.15 K, m1 = 0.01533): 0.1296 ± 0.0001 S/m
- electrical conductivity (303.15 K, m1 = 0.01594): 0.1313 ± 0.0001 S/m
- electrical conductivity (303.15 K, m1 = 0.01661): 0.1328 ± 0.0001 S/m
- electrical conductivity (303.15 K, m1 = 0.01733): 0.1347 ± 0.0001 S/m
- electrical conductivity (303.15 K, m1 = 0.01812): 0.1365 ± 0.0001 S/m
- electrical conductivity (303.15 K, m1 = 0.01898): 0.1386 ± 0.0001 S/m
- electrical conductivity (303.15 K, m1 = 0.01993): 0.141 ± 0.0001 S/m
- electrical conductivity (308.15 K, m1 = 0.00994): 0.1048 ± 0.0001 S/m
- electrical conductivity (308.15 K, m1 = 0.01047): 0.1099 ± 0.0001 S/m
- electrical conductivity (308.15 K, m1 = 0.01105): 0.1157 ± 0.0001 S/m
- electrical conductivity (308.15 K, m1 = 0.0117): 0.1216 ± 0.0001 S/m
- electrical conductivity (308.15 K, m1 = 0.01243): 0.1282 ± 0.0001 S/m
- electrical conductivity (308.15 K, m1 = 0.01283): 0.1315 ± 0.0001 S/m
- electrical conductivity (308.15 K, m1 = 0.01326): 0.1349 ± 0.0001 S/m
- electrical conductivity (308.15 K, m1 = 0.01372): 0.1375 ± 0.0001 S/m
- electrical conductivity (308.15 K, m1 = 0.01421): 0.1402 ± 0.0001 S/m
- electrical conductivity (308.15 K, m1 = 0.01473): 0.1421 ± 0.0001 S/m
- electrical conductivity (308.15 K, m1 = 0.0153): 0.1447 ± 0.0001 S/m
- electrical conductivity (308.15 K, m1 = 0.01591): 0.1463 ± 0.0001 S/m
- electrical conductivity (308.15 K, m1 = 0.01658): 0.1485 ± 0.0001 S/m
- electrical conductivity (308.15 K, m1 = 0.0173): 0.151 ± 0.0001 S/m
- electrical conductivity (308.15 K, m1 = 0.01809): 0.153 ± 0.0001 S/m
- electrical conductivity (308.15 K, m1 = 0.01895): 0.1563 ± 0.0001 S/m
- electrical conductivity (308.15 K, m1 = 0.0199): 0.1591 ± 0.0001 S/m
- electrical conductivity (313.15 K, m1 = 0.01045): 0.1198 ± 0.0001 S/m
- electrical conductivity (313.15 K, m1 = 0.01103): 0.1258 ± 0.0001 S/m
- electrical conductivity (313.15 K, m1 = 0.01168): 0.1323 ± 0.0001 S/m
- electrical conductivity (313.15 K, m1 = 0.01241): 0.14 ± 0.0001 S/m
- electrical conductivity (313.15 K, m1 = 0.01281): 0.1439 ± 0.0001 S/m
- electrical conductivity (313.15 K, m1 = 0.01324): 0.1478 ± 0.0001 S/m
- electrical conductivity (313.15 K, m1 = 0.01369): 0.1515 ± 0.0001 S/m
- electrical conductivity (313.15 K, m1 = 0.01418): 0.155 ± 0.0001 S/m
- electrical conductivity (313.15 K, m1 = 0.01471): 0.1577 ± 0.0001 S/m
- electrical conductivity (313.15 K, m1 = 0.01527): 0.1602 ± 0.0001 S/m
- electrical conductivity (313.15 K, m1 = 0.01589): 0.1631 ± 0.0001 S/m
- electrical conductivity (313.15 K, m1 = 0.01655): 0.1654 ± 0.0001 S/m
- electrical conductivity (313.15 K, m1 = 0.01727): 0.168 ± 0.0001 S/m
- electrical conductivity (313.15 K, m1 = 0.01805): 0.1707 ± 0.0001 S/m
- electrical conductivity (313.15 K, m1 = 0.01891): 0.1726 ± 0.0001 S/m
- electrical conductivity (318.15 K, m1 = 0.01043): 0.1298 ± 0.0001 S/m
- electrical conductivity (318.15 K, m1 = 0.01101): 0.1366 ± 0.0001 S/m
- electrical conductivity (318.15 K, m1 = 0.01165): 0.1438 ± 0.0001 S/m
- electrical conductivity (318.15 K, m1 = 0.01238): 0.1522 ± 0.0001 S/m
- electrical conductivity (318.15 K, m1 = 0.01278): 0.1567 ± 0.0001 S/m
- electrical conductivity (318.15 K, m1 = 0.01321): 0.1612 ± 0.0001 S/m
- electrical conductivity (318.15 K, m1 = 0.01367): 0.166 ± 0.0001 S/m
- electrical conductivity (318.15 K, m1 = 0.01415): 0.1704 ± 0.0001 S/m
- electrical conductivity (318.15 K, m1 = 0.01468): 0.1739 ± 0.0001 S/m
- electrical conductivity (318.15 K, m1 = 0.01524): 0.177 ± 0.0001 S/m
- electrical conductivity (318.15 K, m1 = 0.01585): 0.1806 ± 0.0001 S/m
- electrical conductivity (318.15 K, m1 = 0.01651): 0.1838 ± 0.0001 S/m
- electrical conductivity (318.15 K, m1 = 0.01723): 0.1864 ± 0.0001 S/m
- electrical conductivity (318.15 K, m1 = 0.01802): 0.1895 ± 0.0001 S/m
- electrical conductivity (318.15 K, m1 = 0.01887): 0.1932 ± 0.0001 S/m
- electrical conductivity (318.15 K, m1 = 0.01983): 0.1976 ± 0.0001 S/m
- electrical conductivity (323.15 K, m1 = 0.0104): 0.1411 ± 0.0001 S/m
- electrical conductivity (323.15 K, m1 = 0.01098): 0.1472 ± 0.0001 S/m
- electrical conductivity (323.15 K, m1 = 0.01163): 0.1554 ± 0.0001 S/m
- electrical conductivity (323.15 K, m1 = 0.01236): 0.1644 ± 0.0001 S/m
- electrical conductivity (323.15 K, m1 = 0.01275): 0.169 ± 0.0001 S/m
- electrical conductivity (323.15 K, m1 = 0.01318): 0.1743 ± 0.0001 S/m
- electrical conductivity (323.15 K, m1 = 0.01363): 0.1794 ± 0.0001 S/m
- electrical conductivity (323.15 K, m1 = 0.01412): 0.1851 ± 0.0001 S/m
- electrical conductivity (323.15 K, m1 = 0.01465): 0.1902 ± 0.0001 S/m
- electrical conductivity (323.15 K, m1 = 0.01521): 0.1949 ± 0.0001 S/m
- electrical conductivity (323.15 K, m1 = 0.01582): 0.1998 ± 0.0001 S/m
- electrical conductivity (323.15 K, m1 = 0.01648): 0.2018 ± 0.0001 S/m
- electrical conductivity (323.15 K, m1 = 0.01719): 0.2068 ± 0.0001 S/m
- electrical conductivity (323.15 K, m1 = 0.01798): 0.2118 ± 0.0001 S/m
- electrical conductivity (323.15 K, m1 = 0.01883): 0.2128 ± 0.0001 S/m
- electrical conductivity (323.15 K, m1 = 0.01977): 0.2199 ± 0.0001 S/m
